In patent publication US10882864B2, “Process for preparing BTK inhibitors” (Genentech, Inc., priority 2016, dated 2021):
In brackets after ≈: the same amount, converted by molar mass. Like-named read-outs stand apart in the source and are kept apart here.

Assay: Solubility in various solvents (sonicated at 25° C., centrifuged, filtered, HPLC)
Assay type: physicochemical
Details: thermodynamic from solid, read-out: Solubility (mg/mL at 25° C.)
Method: (§1) The solubility of compound 141 was evaluated in various solvents. In the evaluation, a compound 141 sample was place into a 1.5 mL vial, 1 mL of the solvent was added, and the mixture was sonicated at 25° C. for 5 minutes. The mixture was then centrifuged, the upper supernatant was filtered through a microfilter, a filtrate aliquot was taken, diluted with acetonitrile, filtered, and injected into an HPLC column. The results are summarized in Example 8 Table 4 below where the purity of compound 141 was greater than 98 area % by HPLC.
as §1, with “compound 180” for “compound 141”, “was placed” for “was place”, “Example 9” for “Example 8”

[1] = organic solvent or mixture, solvent Acetone
[2] = organic solvent or mixture, solvent Acetonitrile
[3] = organic solvent or mixture, solvent Dichloromethane
[4] = organic solvent or mixture, solvent Dimethylformamide
[5] = organic solvent or mixture, solvent Ethanol
[6] = organic solvent or mixture, solvent Ethyl acetate
[7] = organic solvent or mixture, solvent Heptane
[8] = organic solvent or mixture, solvent Isopropanol
[9] = organic solvent or mixture, solvent Methanol
[10] = organic solvent or mixture, solvent Methyl tetrahydrofuran
[11] = organic solvent or mixture, solvent Petroleum ether
[12] = organic solvent or mixture, solvent Tetrahydrofuran
[13] = organic solvent or mixture, solvent Toluene
[14] = organic solvent or mixture, solvent tert-Butyl methyl ether

SMILES	solubility at 5 min [1]	solubility at 5 min [2]	solubility at 5 min [3]	solubility at 5 min [4]	solubility at 5 min [5]	solubility at 5 min [6]	solubility at 5 min [7]	solubility at 5 min [8]	solubility at 5 min [9]	solubility at 5 min [10]	solubility at 5 min [11]	solubility at 5 min [12]	solubility at 5 min [13]	solubility at 5 min [14]	solubility at 5 min (solvent Water)	solubility at 5 min (organic solvent or mixture, solvent Dioxane)
C[C@H]1CN(C2COC2)CCN1c1ccc(N)nc1 [Compound 141]	154 mg/mL (≈ 619 mM)	97.7 mg/mL (≈ 393 mM)	269 mg/mL (≈ 1080 mM)	200 mg/mL (≈ 803 mM)	154 mg/mL (≈ 618 mM)	82.3 mg/mL (≈ 331 mM)	0.32 mg/mL (≈ 1.29 mM)	222 mg/mL (≈ 895 mM)	221 mg/mL (≈ 892 mM)	83 mg/mL (≈ 334 mM)	0.26 mg/mL (≈ 1.05 mM)	175 mg/mL (≈ 705 mM)	20.6 mg/mL (≈ 83 mM)	7.39 mg/mL (≈ 29.8 mM)	30.7 mg/mL (≈ 124 mM)	
C[C@H]1CN(C2COC2)CCN1c1ccc(Nc2cc(Br)cn(C)c2=O)nc1 [Compound 180]	3.73 mg/mL (≈ 8.59 mM)	2.3 mg/mL (≈ 5.3 mM)	50.6 mg/mL (≈ 116 mM)	20.8 mg/mL (≈ 47.9 mM)	1.52 mg/mL (≈ 3.5 mM)	4.53 mg/mL (≈ 10.4 mM)	0.03 mg/mL (≈ 0.0691 mM)	2.65 mg/mL (≈ 6.1 mM)	1.35 mg/mL (≈ 3.11 mM)	7.19 mg/mL (≈ 16.6 mM)	0.03 mg/mL (≈ 0.0691 mM)	24 mg/mL (≈ 55.3 mM)	9.81 mg/mL (≈ 22.6 mM)	1.25 mg/mL (≈ 2.88 mM)	0.52 mg/mL (≈ 1.2 mM)	44.7 mg/mL (≈ 103 mM)
